# Read-outs that look alike come from different tables or passages of the source.
# What was measured:
# [1] = tested on: human gastric cancer cells (MKN-45); assay: Growth-inhibiting activity (CTX) against cancer cells, Thiazoyl Blue assay; type: cell-based; conditions: MKN-45 cells, 72 hours incubation with test compound, absorbance at 560 nm
# Description: (§1) 50 µl of a cell culture medium (RPMI-1640 medium containing 10% bovine fetal serum) containing 1 x 10^3 mouse leukemia cells (P388), human gastric cancer cells (MKN-45), human pulmonary cancer cells (PC-13) or human rectal cancer cells (DLD-1) was pipetted into the wells of a 96-well microplate, and incubated at 37°C under 5% CO2 for 24 hours. Then, 50 µl of a test solution containing each test compound was added, and the culture medium was further incubated at 37°C under 5% CO2 for 72 hours. After 10 µl of 0.5% Thiazoyl Blue was added to the culture medium, an enzyme reaction was carried out by incubating the culture medium at 37°C under 5% CO2 for 2 hours. After the reaction was stopped by the addition of 20% sodium dodecyl sulfate (SDS), the culture medium was further incubated at 37°C for 16 hours to dissolve the pigment so formed. Then, the absorbances at 560 nm were measured and compared with that obtained in a control group. The compound of the formula [drawing 7] was used as the control compound.
# [2] = tested on: human pulmonary cancer cells (PC-13); assay: as above; type: cell-based; conditions: PC-13 cells, 72 hours incubation with test compound, absorbance at 560 nm
# Description: as §1
# [3] = tested on: human rectal cancer cells (DLD-1); assay: as above; type: cell-based; conditions: DLD-1 cells, 72 hours incubation with test compound, absorbance at 560 nm
# Description: as §1
# [4] = tested on: mouse leukemia cells (P388); assay: as above; type: cell-based; conditions: 72 hours incubation with test compound, absorbance at 560 nm
# Description: as §1
# [5] = tested on: human gastric cancer MKN-45; assay: Effect on human gastric cancer MKN-45 solid tumor transplanted under the skin of mice; type: in vivo; conditions: Mus musculus, MKN-45, iv, total dose at which tumor growth was inhibited by 75%, injection into the caudal vein, read-out: GID75 (mg/kg total)
# Description: A MKN-45 solid tumor which had previously been grown by transplantation under the skin of a nude mouse was minced, and 3 mm cubes of the tumor were transplanted under the skin of mice used for this test. Starting from the time when the transplanted tumor grew to 0.3 cm^3, a treatment was carried out by injecting a dose of each test drug into the caudal vein of the mice, once a day, for 5 consecutive days and, after two days' pause, injecting the test drug for 5 days (treatment schedule: 5/w x 2) or four times at intervals of 3 or 4 days (treatment schedule: 2/w x 2). Twenty or thirty-two days after the start of the treatment, the larger diameter (L) and smaller diameter (W) of the tumor were measured, and its volume (V) was determined ( […] [formula] ). The degree of tumor growth inhibition was calculated from this volume, and the total dose at which the tumor growth was inhibited by 75% (GID75, mg/kg) was determined.
IC50 [1],IC50 [2],IC50 [3],IC50 [4],SMILES,ED75 ([5]; treatment schedule 5/w x 2),ED75 ([5]; treatment schedule 2/w x 2)
0.29 µM,0.34 µM,0.67 µM,0.037 µM,O=C1c2c(c3c4cccc(O)c4n([C@@H]4O[C@H](CO)[C@@H](O)[C@H](O)[C@H]4O)c3c3[nH]c4c(O)cccc4c23)C(=O)N1NC(CO)CO [Compound [I-A]],27 mg/kg,
0.5 µM,1.4 µM,73 µM,0.12 µM,"O=CNN1C(=O)c2c(c3c4cccc(O)c4n([C@@H]4O[C@H](CO)[C@@H](O)[C@H](O)[C@H]4O)c3c3[nH]c4c(O)cccc4c23)C1=O [Control compound, reference compound]",170 mg/kg,

SMILES,IC50 [1],IC50 [2],IC50 [3],IC50 [4],ED75 ([5]; treatment schedule 5/w x 2),ED75 ([5]; treatment schedule 2/w x 2)
O=C1c2c(c3c4ccc(O)cc4n([C@@H]4O[C@H](CO)[C@@H](O)[C@H](O)[C@H]4O)c3c3[nH]c4cc(O)ccc4c23)C(=O)N1NC(CO)CO [Compound [I-B]],0.011 µM,0.035 µM,0.1 µM,0.002 µM,,3 mg/kg
